Assay results published in patent US11725011B2, “Bicyclic urea kinase inhibitors and uses thereof” (The Broad Institute, Inc., priority 2016, dated 2023).

Columns and labels:
[1] = target: JAK1 (JH2 domain-pseudokinase) (Homo sapiens (Human), UniProt P23458); experiment: KINOMEscan; type: binding; settings: 1 uM
AMPK-alpha2 = AMPK-alpha2 (Homo sapiens (Human), UniProt P54646); experiment: KINOMEscan; type: binding; settings: 1 uM
CSNK2A1 = CSNK2A1 (Homo sapiens (Human), UniProt P68400); experiment: KINOMEscan; type: binding; settings: 1 uM
Chain of CSNK2A1 (P68400 whole entry): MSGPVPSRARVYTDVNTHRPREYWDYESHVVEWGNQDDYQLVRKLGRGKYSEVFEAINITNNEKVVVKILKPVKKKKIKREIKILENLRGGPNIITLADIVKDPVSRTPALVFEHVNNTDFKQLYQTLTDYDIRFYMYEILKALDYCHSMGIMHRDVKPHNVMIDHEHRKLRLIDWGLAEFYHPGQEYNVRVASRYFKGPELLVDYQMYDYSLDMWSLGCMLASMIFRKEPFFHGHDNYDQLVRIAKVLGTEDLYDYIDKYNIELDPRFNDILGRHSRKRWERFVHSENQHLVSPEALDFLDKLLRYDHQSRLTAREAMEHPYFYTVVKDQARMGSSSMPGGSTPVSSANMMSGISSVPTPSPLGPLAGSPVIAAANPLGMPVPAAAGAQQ

STK35 = STK35 (Homo sapiens (Human), UniProt Q8TDR2); experiment: KINOMEscan; type: binding; settings: 1 uM
Chain of STK35 (Q8TDR2 whole entry): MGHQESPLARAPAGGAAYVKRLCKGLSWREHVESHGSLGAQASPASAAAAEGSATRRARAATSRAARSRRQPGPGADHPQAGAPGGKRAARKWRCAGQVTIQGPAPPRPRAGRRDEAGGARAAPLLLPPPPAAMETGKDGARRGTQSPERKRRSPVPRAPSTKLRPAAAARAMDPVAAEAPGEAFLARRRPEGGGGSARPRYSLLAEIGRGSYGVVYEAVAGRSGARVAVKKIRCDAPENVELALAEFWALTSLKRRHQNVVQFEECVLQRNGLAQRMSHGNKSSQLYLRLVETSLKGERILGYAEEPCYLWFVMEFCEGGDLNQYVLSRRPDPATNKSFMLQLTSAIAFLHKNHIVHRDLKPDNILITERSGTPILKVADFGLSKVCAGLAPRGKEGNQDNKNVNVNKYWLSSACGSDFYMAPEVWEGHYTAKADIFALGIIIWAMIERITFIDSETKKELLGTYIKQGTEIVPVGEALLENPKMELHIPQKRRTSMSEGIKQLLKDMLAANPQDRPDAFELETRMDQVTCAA

PAK7 = PAK7 (Homo sapiens (Human), UniProt Q9P286); experiment: KINOMEscan; type: binding; settings: 1 uM
SYK = SYK (Homo sapiens (Human), UniProt P43405); experiment: KINOMEscan; type: binding; settings: 1 uM
SGK3 = SGK3 (Homo sapiens (Human), UniProt Q96BR1); experiment: KINOMEscan; type: binding; settings: 1 uM
FGFR4 = FGFR4 (Homo sapiens (Human), UniProt P22455); experiment: KINOMEscan; type: binding; settings: 1 uM
Chain of FGFR4 (P22455 22-802): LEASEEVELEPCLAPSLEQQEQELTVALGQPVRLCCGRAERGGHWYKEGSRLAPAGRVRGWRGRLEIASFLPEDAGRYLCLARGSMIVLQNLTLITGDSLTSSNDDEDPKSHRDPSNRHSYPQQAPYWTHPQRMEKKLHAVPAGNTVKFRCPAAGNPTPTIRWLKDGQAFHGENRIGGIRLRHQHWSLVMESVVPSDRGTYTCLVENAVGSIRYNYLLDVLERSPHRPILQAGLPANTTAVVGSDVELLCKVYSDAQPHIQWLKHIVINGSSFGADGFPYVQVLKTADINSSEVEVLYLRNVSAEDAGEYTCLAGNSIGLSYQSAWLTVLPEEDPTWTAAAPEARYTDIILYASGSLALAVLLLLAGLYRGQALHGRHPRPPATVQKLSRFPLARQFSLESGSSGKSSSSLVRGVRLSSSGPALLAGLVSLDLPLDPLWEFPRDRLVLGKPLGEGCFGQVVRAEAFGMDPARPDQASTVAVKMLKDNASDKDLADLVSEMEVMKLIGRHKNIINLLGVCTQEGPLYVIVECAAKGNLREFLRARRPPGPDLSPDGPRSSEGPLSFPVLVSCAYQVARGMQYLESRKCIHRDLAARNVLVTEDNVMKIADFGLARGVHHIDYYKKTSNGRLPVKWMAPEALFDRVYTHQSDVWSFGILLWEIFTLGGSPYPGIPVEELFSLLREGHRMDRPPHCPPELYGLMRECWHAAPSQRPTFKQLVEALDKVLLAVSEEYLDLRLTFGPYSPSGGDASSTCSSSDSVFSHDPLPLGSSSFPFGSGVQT

MAP4K2 = MAP4K2 (Homo sapiens (Human), UniProt Q12851); experiment: KINOMEscan; type: binding; settings: 1 uM
RET (V804L) = RET (V804L) (Homo sapiens (Human), UniProt P07949, V804L); experiment: KINOMEscan; type: binding; settings: 1 uM
LKB1 = LKB1 (Homo sapiens (Human), UniProt Q15831); experiment: KINOMEscan; type: binding; settings: 1 uM
Chain of LKB1 (Q15831 whole entry): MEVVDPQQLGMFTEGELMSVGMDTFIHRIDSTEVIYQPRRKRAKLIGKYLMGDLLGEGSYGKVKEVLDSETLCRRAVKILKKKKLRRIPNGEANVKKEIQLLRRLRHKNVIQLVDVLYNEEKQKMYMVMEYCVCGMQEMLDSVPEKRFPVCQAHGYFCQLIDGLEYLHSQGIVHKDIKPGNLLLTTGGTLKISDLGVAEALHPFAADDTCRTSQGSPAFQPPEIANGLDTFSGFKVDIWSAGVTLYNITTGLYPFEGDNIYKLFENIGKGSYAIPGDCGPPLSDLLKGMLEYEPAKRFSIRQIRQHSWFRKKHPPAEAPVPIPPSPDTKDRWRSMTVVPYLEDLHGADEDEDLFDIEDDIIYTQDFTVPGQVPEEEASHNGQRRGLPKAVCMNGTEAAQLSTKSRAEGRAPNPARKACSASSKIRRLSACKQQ

RIOK2 = RIOK2 (Homo sapiens (Human), UniProt Q9BVS4); experiment: KINOMEscan; type: binding; settings: 1 uM
Chain of RIOK2 (Q9BVS4 whole entry): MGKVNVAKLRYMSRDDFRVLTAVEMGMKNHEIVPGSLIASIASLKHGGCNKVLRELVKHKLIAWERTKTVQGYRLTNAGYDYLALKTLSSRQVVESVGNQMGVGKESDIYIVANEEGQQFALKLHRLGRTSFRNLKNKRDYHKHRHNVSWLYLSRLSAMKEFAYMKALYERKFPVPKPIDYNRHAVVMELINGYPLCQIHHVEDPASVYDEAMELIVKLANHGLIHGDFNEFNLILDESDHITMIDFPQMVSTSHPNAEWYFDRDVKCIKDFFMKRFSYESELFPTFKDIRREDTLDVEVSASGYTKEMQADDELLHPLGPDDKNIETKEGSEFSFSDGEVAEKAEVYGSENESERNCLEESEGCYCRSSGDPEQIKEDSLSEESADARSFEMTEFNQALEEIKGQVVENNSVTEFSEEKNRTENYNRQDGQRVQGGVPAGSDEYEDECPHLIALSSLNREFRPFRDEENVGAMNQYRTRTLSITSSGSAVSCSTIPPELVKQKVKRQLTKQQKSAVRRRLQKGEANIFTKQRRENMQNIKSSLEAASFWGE

RIOK1 = RIOK1 (Homo sapiens (Human), UniProt Q9BRS2); experiment: KINOMEscan; type: binding; settings: 1 uM
SIK1 = SIK1 (Homo sapiens (Human), UniProt P57059); experiment: Percent activity against SIK1 at 1 μM; type: biochemical
Chain of SIK1 (P57059 whole entry): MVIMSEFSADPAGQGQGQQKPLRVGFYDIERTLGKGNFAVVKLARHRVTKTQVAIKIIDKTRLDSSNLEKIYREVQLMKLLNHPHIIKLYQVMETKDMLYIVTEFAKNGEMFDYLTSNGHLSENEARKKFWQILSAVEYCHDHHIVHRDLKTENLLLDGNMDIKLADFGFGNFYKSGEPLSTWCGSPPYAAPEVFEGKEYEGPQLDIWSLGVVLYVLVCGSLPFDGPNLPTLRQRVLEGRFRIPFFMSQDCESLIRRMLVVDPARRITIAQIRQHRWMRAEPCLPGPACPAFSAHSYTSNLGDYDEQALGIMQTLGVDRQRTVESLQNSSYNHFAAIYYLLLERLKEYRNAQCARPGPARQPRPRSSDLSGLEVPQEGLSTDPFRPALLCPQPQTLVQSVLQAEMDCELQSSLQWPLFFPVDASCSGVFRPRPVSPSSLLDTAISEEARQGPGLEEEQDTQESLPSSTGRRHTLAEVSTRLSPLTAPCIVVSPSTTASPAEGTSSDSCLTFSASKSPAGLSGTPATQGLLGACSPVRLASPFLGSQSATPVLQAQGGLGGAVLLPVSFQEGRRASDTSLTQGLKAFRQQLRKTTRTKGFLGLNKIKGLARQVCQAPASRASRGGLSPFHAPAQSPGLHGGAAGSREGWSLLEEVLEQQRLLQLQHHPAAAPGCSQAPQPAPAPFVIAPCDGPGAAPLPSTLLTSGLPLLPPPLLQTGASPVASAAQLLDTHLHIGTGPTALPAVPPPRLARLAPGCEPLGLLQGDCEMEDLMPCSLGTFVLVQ

KIT (D816V) = KIT (D816V) (Homo sapiens (Human), UniProt P10721, D816V); experiment: KINOMEscan; type: binding; settings: 1 uM
PLK3 = PLK3 (Homo sapiens (Human), UniProt Q9H4B4); experiment: KINOMEscan; type: binding; settings: 1 uM
DYRK1A = DYRK1A (Homo sapiens (Human), UniProt Q13627); experiment: KINOMEscan; type: binding; settings: 1 uM
HIPK1 = HIPK1 (Homo sapiens (Human), UniProt Q86Z02); experiment: KINOMEscan; type: binding; settings: 1 uM
RET = RET (Homo sapiens (Human), UniProt P07949); experiment: KINOMEscan; type: binding; settings: 1 uM
HIPK4 = HIPK4 (Homo sapiens (Human), UniProt Q8NE63); experiment: KINOMEscan; type: binding; settings: 1 uM
Chain of HIPK4 (Q8NE63 whole entry): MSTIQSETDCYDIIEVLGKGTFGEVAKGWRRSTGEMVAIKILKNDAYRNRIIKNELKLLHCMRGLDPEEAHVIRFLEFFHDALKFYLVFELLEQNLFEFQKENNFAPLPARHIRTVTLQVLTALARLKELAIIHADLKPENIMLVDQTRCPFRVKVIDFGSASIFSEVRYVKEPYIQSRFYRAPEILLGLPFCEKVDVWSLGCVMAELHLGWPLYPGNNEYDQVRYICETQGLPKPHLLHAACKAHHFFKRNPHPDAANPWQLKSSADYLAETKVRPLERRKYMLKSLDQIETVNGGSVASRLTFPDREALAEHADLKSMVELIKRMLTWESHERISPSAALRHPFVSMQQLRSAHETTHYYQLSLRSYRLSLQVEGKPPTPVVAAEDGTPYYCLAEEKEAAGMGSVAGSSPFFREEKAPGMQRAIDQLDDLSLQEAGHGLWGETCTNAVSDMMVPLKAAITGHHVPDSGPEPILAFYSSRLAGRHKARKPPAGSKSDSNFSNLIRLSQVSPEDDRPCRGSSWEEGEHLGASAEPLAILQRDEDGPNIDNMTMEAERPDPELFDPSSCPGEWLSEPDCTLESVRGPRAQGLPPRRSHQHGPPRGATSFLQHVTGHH

ABL1-phosphorylated = ABL1-phosphorylated (Homo sapiens (Human), UniProt P00519); experiment: KINOMEscan; type: binding; settings: 1 uM
CDKL2 = CDKL2 (Homo sapiens (Human), UniProt Q92772); experiment: KINOMEscan; type: binding; settings: 1 uM
PFTAIRE2 = PFTAIRE2 (Homo sapiens (Human), UniProt Q96Q40); experiment: KINOMEscan; type: binding; settings: 1 uM
EGFR (E746-A750del) = EGFR (E746-A750del) (Homo sapiens (Human), UniProt P00533, DEL746-750); experiment: KINOMEscan; type: binding; settings: 1 uM
EGFR (L858R, T790M) = EGFR (L858R, T790M) (Homo sapiens (Human), UniProt P00533, L858R/T790M); experiment: KINOMEscan; type: binding; settings: 1 uM
EPHA8 = EPHA8 (Homo sapiens (Human), UniProt P29322); experiment: KINOMEscan; type: binding; settings: 1 uM
CAMK2A = CAMK2A (Homo sapiens (Human), UniProt Q9UQM7); experiment: KINOMEscan; type: binding; settings: 1 uM
TRKA = TRKA (Homo sapiens (Human), UniProt P04629); experiment: KINOMEscan; type: binding; settings: 1 uM
ARK5 = ARK5 (Homo sapiens (Human), UniProt O60285); experiment: KINOMEscan; type: binding; settings: 1 uM
EPHB1 = EPHB1 (Homo sapiens (Human), UniProt P54762); experiment: KINOMEscan; type: binding; settings: 1 uM
NIK = NIK (Homo sapiens (Human), UniProt Q99558); experiment: KINOMEscan; type: binding; settings: 1 uM
BRSK1 = BRSK1 (Homo sapiens (Human), UniProt Q8TDC3); experiment: KINOMEscan; type: binding; settings: 1 uM
MYO3B = MYO3B (Homo sapiens (Human), UniProt Q8WXR4); experiment: KINOMEscan; type: binding; settings: 1 uM
CTK = CTK (Homo sapiens (Human), UniProt P42679); experiment: KINOMEscan; type: binding; settings: 1 uM
SBK1 = SBK1 (Homo sapiens (Human), UniProt Q52WX2); experiment: KINOMEscan; type: binding; settings: 1 uM
SRMS = SRMS (Homo sapiens (Human), UniProt Q9H3Y6); experiment: KINOMEscan; type: binding; settings: 1 uM
MST4 = MST4 (Homo sapiens (Human), UniProt Q9P289); experiment: KINOMEscan; type: binding; settings: 1 uM
p38-beta = p38-beta (Homo sapiens (Human), UniProt Q15759); experiment: KINOMEscan; type: binding; settings: 1 uM
SIK = SIK (Homo sapiens (Human), UniProt P57059); experiment: KINOMEscan; type: binding; settings: 1 uM
Chain of SIK (P57059 whole entry): as the sequence (P57059 whole entry) above

STK36 = STK36 (Homo sapiens (Human), UniProt Q9NRP7); experiment: KINOMEscan; type: binding; settings: 1 uM
TGFBR1 = TGFBR1 (Homo sapiens (Human), UniProt P36897); experiment: KINOMEscan; type: binding; settings: 1 uM
Chain of TGFBR1 (P36897 34-503): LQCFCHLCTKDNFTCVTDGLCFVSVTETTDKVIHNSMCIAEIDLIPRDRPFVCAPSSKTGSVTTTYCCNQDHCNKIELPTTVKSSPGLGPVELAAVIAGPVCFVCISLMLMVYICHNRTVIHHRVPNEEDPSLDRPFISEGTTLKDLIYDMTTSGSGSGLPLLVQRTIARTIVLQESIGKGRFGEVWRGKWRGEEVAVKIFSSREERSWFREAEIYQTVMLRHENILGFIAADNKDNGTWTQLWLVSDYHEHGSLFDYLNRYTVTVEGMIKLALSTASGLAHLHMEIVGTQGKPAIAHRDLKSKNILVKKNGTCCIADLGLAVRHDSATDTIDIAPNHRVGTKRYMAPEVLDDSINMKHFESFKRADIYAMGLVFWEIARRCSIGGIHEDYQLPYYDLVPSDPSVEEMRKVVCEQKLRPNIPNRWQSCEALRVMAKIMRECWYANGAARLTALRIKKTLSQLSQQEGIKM

Chain of JAK1 (JH2 domain-pseudokinase) (P23458 583-855): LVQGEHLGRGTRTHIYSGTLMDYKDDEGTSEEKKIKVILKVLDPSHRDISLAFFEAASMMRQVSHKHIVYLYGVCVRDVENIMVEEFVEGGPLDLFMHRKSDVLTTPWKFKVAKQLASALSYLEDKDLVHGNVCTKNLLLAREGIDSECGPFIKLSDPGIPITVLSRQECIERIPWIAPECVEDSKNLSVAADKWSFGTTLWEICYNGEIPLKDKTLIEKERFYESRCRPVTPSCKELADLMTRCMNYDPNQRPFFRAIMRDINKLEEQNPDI

## COc1ccc(N2C(=O)N(c3c(C)cccc3C)Cc3cnc(Nc4ccc(N5CCN(C)CC5)cc4)nc32)c(OC)c1 [HG-11-136-01]
[1]
  KINOMEscan JAK1 (JH2 domain-pseudokinase): 8.1
AMPK-alpha2
  KINOMEscan AMPK-alpha2: 30
CSNK2A1
  KINOMEscan CSNK2A1: 1.9
STK35
  KINOMEscan STK35: 49
PAK7
  KINOMEscan PAK7: 1.3
SYK
  KINOMEscan SYK: 1.2
SGK3
  KINOMEscan SGK3: 77
FGFR4
  KINOMEscan FGFR4: 2
MAP4K2
  KINOMEscan MAP4K2: 0.3
RET (V804L)
  KINOMEscan RET (V804L): 24
LKB1
  KINOMEscan LKB1: 69
RIOK2
  KINOMEscan RIOK2: 87
RIOK1
  KINOMEscan RIOK1: 9.2
SIK1; 1 μM
  Enzyme activity at 1 μM (%) SIK1: 19.1%
SIK1; compound at 1 μM, approximate Km for ATP
  SIK1 % ACTIVITY: 19.1%
KIT (D816V)
  KINOMEscan KIT (D816V): 0.2
PLK3
  KINOMEscan PLK3: 31
DYRK1A
  KINOMEscan DYRK1A: 30
HIPK1
  KINOMEscan HIPK1: 3.8
RET
  KINOMEscan RET: 0
HIPK4
  KINOMEscan HIPK4: 51
ABL1-phosphorylated
  KINOMEscan ABL1-phosphorylated: 0
CDKL2
  KINOMEscan CDKL2: 14
PFTAIRE2
  KINOMEscan PFTAIRE2: 78
EGFR (E746-A750del)
  KINOMEscan EGFR (E746-A750del): 1.8
EGFR (L858R, T790M)
  KINOMEscan EGFR (L858R, T790M): 1.7
EPHA8
  KINOMEscan EPHA8: 0.9
CAMK2A
  KINOMEscan CAMK2A: 93
TRKA
  KINOMEscan TRKA: 41
ARK5
  KINOMEscan ARK5: 8.2
EPHB1
  KINOMEscan EPHB1: 0.3
NIK
  KINOMEscan NIK: 36
BRSK1
  KINOMEscan BRSK1: 100
MYO3B
  KINOMEscan MYO3B: 29
CTK
  KINOMEscan CTK: 33
SBK1
  KINOMEscan SBK1: 6.6
SRMS
  KINOMEscan SRMS: 0
MST4
  KINOMEscan MST4: 2.8
p38-beta
  KINOMEscan p38-beta: 3.1
SIK
  KINOMEscan SIK: 0.9
STK36
  KINOMEscan STK36: 0
TGFBR1
  KINOMEscan TGFBR1: 33
